Results reported in patent US12521448B2, “Preparation of solid cyclodextrin complexes for ophthalmic active pharmaceutical ingredient delivery” (Oculis Operations Sarl, priority 2016, dated 2026).

Assays:
[1] = Degradation on heating of drug suspensions in aqueous γ-cyclodextrin solutions (autoclave vs 95° C.); format: physicochemical; details: autoclaving with γ-cyclodextrin
Excerpt: Diclofenac is suspended in aqueous solutions containing from 1% (w/v) to 15% (w/v) γ-cyclodextrin.

[2] = Dehydration of dexamethasone to 16,17-unsaturated dexamethasone and dexamethasone enol aldehydes during preparation/autoclaving of eye drops; format: physicochemical; details: aqueous eye drops
Procedure: The dehydration of dexamethasone during preparation of the aqueous dexamethasone eye drops described in Example 1 (formulations F1, F2, F3, F4, F5 and F6) is determined by quantitative determination of 16,17-unsaturated dexamethasone and the dexamethasone enol aldehydes in the eye drops after manufacturing. Formulations F12, F13 and F14 are prepared as described in F1, that is by dissolving or suspending the ingredients, including dexamethasone, in pure water and autoclaving the mixture in sealed vial at 121° C. for 20 minutes. The substantially clear aqueous vials are removed from the autoclave and become cloudy upon cooling at ambient conditions. […] F13 comprises dexamethasone and γ-cyclodextrin suspended in pure water. F14 comprises dexamethasone suspended in pure water. The effect of excipients and preparation methods on the formation of 16,17-unsaturated dexamethasone and the dexamethasone enol aldehydes is presented as the fraction (in %) of dexamethasone degraded to form 16,17-unsaturated dexamethasone and the dexamethasone enol aldehydes.
The amount of 16,17-unsaturated dexamethasone and dexamethasone enol aldehydes formed, presented as the fraction (in %) of dexamethasone degraded to form 16,17-unsaturated dexamethasone and dexamethasone enol aldehydes, in aqueous eye drops after no autoclaving (i.e., heating to 121° C. for 20 minutes) once, twice and three times is shown in Table 3. […]

Row | SMILES | effect of γ-cyclodextrin on aqueous diclofenac solutions during autoclaving [1] | fraction of dexamethasone degraded to 16,17-unsaturated dexamethasone and dexamethasone enol aldehydes ([2]; pH 2.5, 0 autoclaving cycles (121° C., 20 min)) [%] | fraction of dexamethasone degraded to 16,17-unsaturated dexamethasone and dexamethasone enol aldehydes ([2]; pH 2.5, 1 autoclaving cycle (121° C., 20 min)) [%] | fraction of dexamethasone degraded to 16,17-unsaturated dexamethasone and dexamethasone enol aldehydes ([2]; pH 2.5, 2 autoclaving cycles (121° C., 20 min)) [%] | fraction of dexamethasone degraded to 16,17-unsaturated dexamethasone and dexamethasone enol aldehydes ([2]; pH 2.5, 3 autoclaving cycles (121° C., 20 min)) [%] | fraction of dexamethasone degraded to 16,17-unsaturated dexamethasone and dexamethasone enol aldehydes ([2]; pH 4.0, 0 autoclaving cycles (121° C., 20 min)) [%] | fraction of dexamethasone degraded to 16,17-unsaturated dexamethasone and dexamethasone enol aldehydes ([2]; pH 4.0, 1 autoclaving cycle (121° C., 20 min)) [%] | fraction of dexamethasone degraded to 16,17-unsaturated dexamethasone and dexamethasone enol aldehydes ([2]; pH 4.0, 2 autoclaving cycles (121° C., 20 min)) [%] | fraction of dexamethasone degraded to 16,17-unsaturated dexamethasone and dexamethasone enol aldehydes ([2]; pH 4.0, 3 autoclaving cycles (121° C., 20 min)) [%] | fraction of dexamethasone degraded to 16,17-unsaturated dexamethasone and dexamethasone enol aldehydes ([2]; pH 5.5, 0 autoclaving cycles (121° C., 20 min)) [%] | fraction of dexamethasone degraded to 16,17-unsaturated dexamethasone and dexamethasone enol aldehydes ([2]; pH 5.5, 1 autoclaving cycle (121° C., 20 min)) [%] | fraction of dexamethasone degraded to 16,17-unsaturated dexamethasone and dexamethasone enol aldehydes ([2]; pH 5.5, 2 autoclaving cycles (121° C., 20 min)) [%] | fraction of dexamethasone degraded to 16,17-unsaturated dexamethasone and dexamethasone enol aldehydes ([2]; pH 5.5, 3 autoclaving cycles (121° C., 20 min)) [%] | fraction of dexamethasone degraded to 16,17-unsaturated dexamethasone and dexamethasone enol aldehydes ([2]; pH 7.0, 0 autoclaving cycles (121° C., 20 min)) [%] | fraction of dexamethasone degraded to 16,17-unsaturated dexamethasone and dexamethasone enol aldehydes ([2]; pH 7.0, 1 autoclaving cycle (121° C., 20 min)) [%] | fraction of dexamethasone degraded to 16,17-unsaturated dexamethasone and dexamethasone enol aldehydes ([2]; pH 7.0, 2 autoclaving cycles (121° C., 20 min)) [%] | fraction of dexamethasone degraded to 16,17-unsaturated dexamethasone and dexamethasone enol aldehydes ([2]; pH 7.0, 3 autoclaving cycles (121° C., 20 min)) [%]
1 | O=C(O)Cc1ccccc1Nc1c(Cl)cccc1Cl [Diclofenac, diclofenac] | intense coloring |  |  |  |  |  |  |  |  |  |  |  |  |  |  |  | 
2 | C[C@@H]1C[C@H]2[C@@H]3CCC4=CC(=O)C=C[C@]4(C)[C@@]3(F)[C@@H](O)C[C@]2(C)[C@@]1(O)C(=O)CO [dexamethasone] |  | 0.08 | 1.06 | 2.29 | 3.12 | 0.08 | 1.14 | 2.19 | 3.03 | 0.08 | 1.22 | 2.27 | 3.46 | 0.08 | 0.86 | 1.64 | 2.57
